# Experimental data as given in patent US5045566A, “Novel imidate insecticides” (ICI Americas Inc., priority 1989, dated 1991).
# Columns and labels:
# Format in all cases: in vivo
# [1] = tested on: Housefly [Musca domestica]; assay: Housefly contact mortality in dishes (HF), 48 hours; details: μg of test compound per 25 female flies
# Procedure, shortened: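 Dry-film exposure of 25 female houseflies per cage, 48 h; LC50 as μg per 25 flies.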
# [2] = tested on: Cabbage Looper [Trichoplusia ni (Hubner)]; assay: Cabbage looper leaf dip (CL), 3-5 days; details: percent in solution, second-instar larvae
# Procedure, shortened: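 Squash cotyledons dipped in test solution (acetone-water 50-50, ≤0.1%), dried, offered to 5 second-instar larvae; mortality after 3-5 days gives LC50.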
# [3] = tested on: Aster Leafhopper [Macrosteles fascifrens (Stal)]; assay: Aster leafhopper on dipped oat seedlings (LH), 48 hours; details: percent in solution, adults/nymphs
# Procedure, shortened: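 LC50 values, given as percent of test compound in the dip solution, were derived from dosage-mortality curves over concentrations from 0.05% downward. Mortality was counted 48 hours after ten leafhopper adults/nymphs were enclosed on treated seedlings. The seedlings were oats, about 10 cm tall, briefly dipped in 50-50 acetone-water.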
# [4] = tested on: Tobacco Budworm [Heliothis virescens (Fabricius)] eggs; assay: Tobacco budworm eggs (TBW-E); details: percent in solution; 2-day old eggs
# Procedure, shortened: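 Step 1: dip 2-day old egg patches in acetone test solutions (top concentration 0.1%). Step 2: hold in dishes with rearing medium at 78° F. Step 3: record mortality after control hatch and feeding.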
# [5] = tested on: Beet Armyworm (Spodoptera exigua); assay: Beet armyworm leaf dip (BAW), 5 days; details: percent in solution; second-instar larvae; five days
# Protocol: (§1) The compounds in Tables 1 and 2 above were tested for insecticidal activity using the following testing procedures. LC50 values, based on the results of these tests and calculated according to dosage-mortality curves, are expressed in Table 3.
# Beet Armyworm (Spodoptera exigua):
# Test compounds were diluted in a 50-50 acetone-water solution. Young leaves of sugar beets (Beta vulgaris) were immersed in the test solutions for 2-3 seconds and placed on a wire screen to dry. The dried leaves were placed in petri dishes containing a moistened filter paper and infested with five second-instar beet armyworm larvae. The dishes were placed in a high humidity chamber. Mortality of the larvae was recorded five days later. Test concentrations ranged from 0.1% downward. The LC-50 values are expressed below in Table 3 under the heading "BAW" in terms of percent of the test compound in solution.
# [6] = tested on: Black Bean Aphid [Aphis fabae (Scop.)]; assay: Black bean aphid spray test on nasturtium (BBA), 48 hours; details: percent of test compound in sprayed solution
# Procedure, shortened: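 LC50, given as percent test compound in the sprayed liquid, was calculated from dosage-mortality curves using concentrations from 0.05% downward. Sprays in 50:50 acetone-water went to runoff on ~5 cm nasturtiums carrying 25-50 aphids of mixed ages, one day after infestation. Deaths were counted 48 h later under greenhouse conditions.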
# [7] = tested on: Maize weevil [Sitophilus zeamais (Motschulsky)]; assay: Maize weevil on dipped corn seeds (MW), 48 hours; details: percent in solution, adult weevils
# Procedure, shortened: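 LC50, given as percent of compound in dipping solution, comes from dosage-mortality curves over concentrations descending from 0.01%. Four corn seeds soaked 2-3 s in 50:50 acetone:water solution were dried and held with 10 adult weevils, about 25° C, mortality read after 48 h.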
# [8] = tested on: Tobacco Budworm [Heliothis virescens (Fabricius)] larvae; assay: Tobacco budworm larvae, contact (TBW-C), 5 days; details: percent in solution, second-instar larvae
# Protocol: as §1
# Tobacco Budworm [Heliothis virescens (Fabricius)]:
# (a) Contact: Test compounds were diluted in a 50-50 acetone-water solution. Cotton (Gossypium sp.) cotyledons were immersed in the test solutions for 2-3 seconds and placed on a wire screen to dry. The dried leaves were placed in petri dishes containing a moistened piece of filter paper and infested with 5 second-instar tobacco budworm larvae. The dishes were placed in a high humidity chamber for 5 days, and percent mortality of the larvae recorded. Test concentrations ranged from 0.1% downward. The LC-50 values are expressed below in Table 3 under the heading "TBW-C" in terms of percent of the test compound in the solution.
SMILES,LC50 HF [1],LC50 CL [2],LC50 LH [3],LC50 TBW E (eggs) [4],LC50 BAW [5],LC50 BBA [6],LC50 MW [7],LC50 TBW C (contact) [8]
CC(C)C(=Nc1cccc(Cl)c1)OCc1cccc(Oc2ccccc2)c1 [Compound 7],8 µg,0.006%,0.0002%,0.009%,0.006%,0.0003%,,
CC(C)C(=Nc1ccc(Cl)c(Cl)c1)OCc1cccc(Oc2ccccc2)c1 [Compound 14],40 µg,0.004%,0.001%,,0.005%,0.0003%,0.01%,
CC(C)C(=Nc1ccc(Cl)cc1)OCc1ccc(F)c(Oc2ccccc2)c1 [Compound 23],5 µg,0.0005%,,0.017%,0.001%,0.001%,,
Clc1ccc(N=C(OCc2cccc(Oc3ccccc3)c2)C2CC2)cc1 [Compound 32],37 µg,0.003%,> 0.05%,,0.03%,0.003%,> 0.01%,
Clc1ccccc1N=C(OCc1cccc(Oc2ccccc2)c1)C(Cl)Cl [Compound 34],> 100 µg,0.015%,,> 0.1%,0.015%,> 0.05%,,0.01%
Fc1ccc(N=C(OCc2cccc(Oc3ccccc3)c2)C2CC2)cc1 [Compound 45],30 µg,0.03%,> 0.05%,,0.1%,0.03%,,
CC(C)C(=Nc1ccc(F)cc1)OCc1cccc(Oc2ccccc2)c1 [Compound 46],7 µg,0.003%,0.002%,0.016%,0.006%,0.003%,,
CC(C)C(=Nc1ccc(F)cc1)OCc1ccc(F)c(Oc2ccccc2)c1 [Compound 53],2 µg,0.0005%,,0.02%,0.003%,0.001%,,0.0025%
FC(F)(F)c1ccc(N=C(OCc2cccc(Oc3ccccc3)c2)C2CC2)cc1 [Compound 62],20 µg,0.005%,> 0.05%,,0.02%,0.001%,> 0.01%,
FC(F)(F)Oc1ccc(N=C(OCc2cccc(Oc3ccccc3)c2)C2CC2)cc1 [Compound 63],30 µg,0.005%,0.0001%,,0.005%,0.0003%,> 0.01%,
FC(F)(F)c1ccc(N=C(OCc2cccc(Oc3ccccc3)c2)C2CC2)c(Cl)c1 [Compound 65],> 100 µg,< 0.01%,> 0.05%,,> 0.1%,> 0.05%,,
CC(C)C(=Nc1cccc(C(F)(F)F)c1)OCc1cccc(Oc2ccccc2)c1 [Compound 67],15 µg,0.001%,0.00027%,0.01%,0.006%,0.0002%,,
Cc1c(Cl)cccc1N=C(OCc1cccc(Oc2ccccc2)c1)C(Cl)Cl [Compound 97],10 µg,0.002%,,0.04%,0.01%,0.001%,,0.004%
CCC(C)C(=Nc1ccc(F)c(Cl)c1)OCc1cccc(Oc2ccccc2)c1 (stereo not shown) [Compound 122],37 µg,0.0007%,> 0.05%,0.05%,0.01%,> 0.05%,> 0.01%,
Cc1ccc(N=C(OCc2cccc(Oc3ccccc3)c2)C(Cl)Cl)cc1 [Compound 139],4.2 µg,0.015%,,0.05%,0.007%,0.001%,,0.005%
O=[N+]([O-])c1cccc(N=C(OCc2cccc(Oc3ccccc3)c2)C(Cl)Cl)c1 [Compound 174],17 µg,0.03%,,> 0.1%,0.1%,0.05%,,
CC(C)C(=Nc1ccc(I)cc1)OCc1cccc(Oc2ccc(F)cc2)c1 [Compound 234],38 µg,0.00045%,0.003%,0.09%,,0.003%,> 0.01%,0.0013%
CC(C)C(=Nc1ccc(F)c(Cl)c1)OCc1cccc(Oc2ccc(Br)cc2)c1 [Compound 238],25 µg,0.0002%,> 0.05%,0.05%,,0.003%,> 0.01%,0.0004%
CC(C)C(=Nc1ccc(F)c(Br)c1)OCc1cccc(Oc2ccc(F)cc2)c1 [Compound 253],10 µg,0.00013%,0.003%,> 0.1%,,0.002%,> 0.01%,0.0005%
CC(C)C(=Nc1ccc(F)c(Cl)c1)OCc1cccc(Oc2ccccc2)n1 [Compound 462],7 µg,0.001%,0.001%,0.04%,,0.001%,> 0.05%,0.0025%
CC(C)C(=Nc1ccc(F)c(Cl)c1)OCc1cccc(Oc2ccc(Cl)cc2)n1 [Compound 463],8 µg,0.00009%,0.0003%,0.0075%,0.0024%,0.05%,0.01%,
C#CCc1c(F)c(F)c(COC(=Nc2ccc(F)c(Cl)c2)C(C)C)c(F)c1F [Compound 520],5.5 µg,> 0.1%,0.0003%,> 0.1%,,0.0002%,0.0042%,0.00075%
CC(C)C(=Nc1ccc(F)c(Cl)c1F)OCc1cccc(Oc2ccc(F)cc2)n1 [Compound 521],7.5 µg,0.00005%,0.05%,> 0.1%,,0.0008%,0.01%,0.0005%
CC(C)C(=Nc1ccc(Cl)c(Cl)c1)OCc1cccc(Oc2ccc(Cl)cc2)n1 [Compound 523],22 µg,0.00015%,> 0.05%,> 0.1%,,0.001%,> 0.01%,0.0002%
CC(C)C(=Nc1ccc(C(F)(F)F)cc1)OCc1cccc(Oc2ccc(Cl)cc2)n1 [Compound 530],9.8 µg,0.00027%,0.05%,0.005%,,0.0003%,> 0.01%,0.00005%
CC(C)C(=Nc1ccc(F)c(Cl)c1)OCc1cccc(Oc2ccc(F)c(F)c2)n1 [Compound 531],5 µg,> 0.1%,> 0.05%,> 0.1%,,> 0.05%,> 0.01%,0.00037%
